Assay results from US12077503B2, “Substituted cyclic amides and their use as herbicides” (FMC CORPORATION, priority 2015, dated 2024).

Columns and labels:
Assay in all cases: Test C preemergence
Assay type in all cases: in vivo
[1] = tested on: blackgrass (Alopecurus myosuroides); settings: for Plant response rating (scale of 0 to 100), Blackgrass: 0 is no effect, 100 is complete control
How it was run: (§1)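 Preemergence: sow in loam-sand soil and treat. Postemergence: grow in peat-moss/vermiculite medium to 2–18 cm (1–4 leaves) and spray. Compound in non-phytotoxic solvent with surfactant; keep in greenhouse 13–15 d; score visually against controls, 0 (none) to 100 (full control).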

[2] = tested on: ragweed (common ragweed, Ambrosia elatior); settings: for Plant response rating (scale of 0 to 100), Ragweed: 0 is no effect, 100 is complete control
How it was run: as §1

[3] = tested on: johnsongrass (Sorghum halepense); settings: for Plant response rating (scale of 0 to 100), Johnsongrass: 0 is no effect, 100 is complete control
How it was run: as §1

[4] = tested on: ryegrass, Italian (Italian ryegrass, Lolium multiflorum); settings: for Plant response rating (scale of 0 to 100), Ryegrass, Italian: 0 is no effect, 100 is complete control
How it was run: as §1

[5] = tested on: morningglory (Ipomoea coccinea); settings: for Plant response rating (scale of 0 to 100), Morningglory: 0 is no effect, 100 is complete control
How it was run: as §1

[6] = tested on: oilseed rape (Brassica napus); settings: for Plant response rating (scale of 0 to 100), Oilseed Rape: 0 is no effect, 100 is complete control
How it was run: as §1

[7] = tested on: wheat (winter wheat, Triticum aestivum); settings: for Plant response rating (scale of 0 to 100), Wheat: 0 is no effect, 100 is complete control
How it was run: as §1

[8] = tested on: foxtail, giant (giant foxtail, Setaria faberii); settings: for Plant response rating (scale of 0 to 100), Foxtail, Giant: 0 is no effect, 100 is complete control
How it was run: as §1

[9] = tested on: pigweed (Amaranthus retroflexus); settings: for Plant response rating (scale of 0 to 100), Pigweed: 0 is no effect, 100 is complete control
How it was run: as §1

[10] = tested on: lambsquarters (Chenopodium album); settings: for Plant response rating (scale of 0 to 100), Lambsquarters: 0 is no effect, 100 is complete control
How it was run: as §1

[11] = tested on: waterhemp (common waterhemp, Amaranthus rudis); settings: for Plant response rating (scale of 0 to 100), Waterhemp: 0 is no effect, 100 is complete control
How it was run: as §1

[12] = tested on: nutsedge, yellow (yellow nutsedge, Cyperus esculentus); settings: for Plant response rating (scale of 0 to 100), Nutsedge, Yellow: 0 is no effect, 100 is complete control
How it was run: as §1

[13] = tested on: soybean (Glycine max); settings: for Plant response rating (scale of 0 to 100), Soybean: 0 is no effect, 100 is complete control
How it was run: as §1

[14] = tested on: barnyardgrass (Echinochloa crus-galli); settings: for Plant response rating (scale of 0 to 100), Barnyardgrass: 0 is no effect, 100 is complete control
How it was run: as §1

[15] = tested on: crabgrass, large (large crabgrass, Digitaria sanguinalis); settings: for Plant response rating (scale of 0 to 100), Crabgrass, Large: 0 is no effect, 100 is complete control
How it was run: as §1

[16] = tested on: Galium (catchweed bedstraw, Galium aparine); settings: for Plant response rating (scale of 0 to 100), Galium: 0 is no effect, 100 is complete control
How it was run: as §1

[17] = tested on: velvetleaf (Abutilon theophrasti); settings: for Plant response rating (scale of 0 to 100), Velvetleaf: 0 is no effect, 100 is complete control
How it was run: as §1

[18] = tested on: corn (Zea mays); settings: for Plant response rating (scale of 0 to 100), Corn: 0 is no effect, 100 is complete control
How it was run: as §1

[19] = 62 g ai/ha, scale 0 to 100, 0 no effect, 100 complete control

CN1C[C@H](c2ccc(C(F)(F)F)cc2)[C@@H](C(=O)Nc2cccc(F)c2F)C1=O [Compound 623, (3S,4S)—N-(2,3-difluorophenyl)-1-methyl-2-oxo-4-[4-(trifluoromethyl)phenyl]-3-pyrrolidinecarboxamide]
5: Plant response rating (scale of 0 to 100), Velvetleaf ([17]; 31 g ai/ha)
0: Plant response rating (scale of 0 to 100), Blackgrass ([1]; 8 g ai/ha) | Plant response rating (scale of 0 to 100), Ragweed ([2]; 8 g ai/ha) | Plant response rating (scale of 0 to 100), Ryegrass, Italian ([4]; 8 g ai/ha) | Plant response rating (scale of 0 to 100), Morningglory ([5]; 8 g ai/ha) | Plant response rating (scale of 0 to 100), Morningglory ([5]; 16 g ai/ha) | Plant response rating (scale of 0 to 100), Oilseed Rape ([6]; 16 g ai/ha) | Plant response rating (scale of 0 to 100), Wheat ([7]; 16 g ai/ha) | Plant response rating (scale of 0 to 100), Nutsedge, Yellow ([12]; 8 g ai/ha) | Plant response rating (scale of 0 to 100), Nutsedge, Yellow ([12]; 16 g ai/ha) | Plant response rating (scale of 0 to 100), Nutsedge, Yellow ([12]; 31 g ai/ha) | Plant response rating, Nutsedge, Yellow [12, 19] | Plant response rating (scale of 0 to 100), Soybean ([13]; 8 g ai/ha) | Plant response rating (scale of 0 to 100), Soybean ([13]; 16 g ai/ha) | Plant response rating (scale of 0 to 100), Soybean ([13]; 31 g ai/ha) | Plant response rating, Soybean [13, 19] | Plant response rating (scale of 0 to 100), Velvetleaf ([17]; 8 g ai/ha) | Plant response rating (scale of 0 to 100), Velvetleaf ([17]; 16 g ai/ha)
95: Plant response rating, Barnyardgrass [14, 19] | Plant response rating (scale of 0 to 100), Crabgrass, Large ([15]; 31 g ai/ha) | Plant response rating, Crabgrass, Large [15, 19]
60: Plant response rating (scale of 0 to 100), Blackgrass ([1]; 31 g ai/ha) | Plant response rating (scale of 0 to 100), Lambsquarters ([10]; 31 g ai/ha) | Plant response rating, Velvetleaf [17, 19] | Plant response rating (scale of 0 to 100), Corn ([18]; 31 g ai/ha)
80: Plant response rating (scale of 0 to 100), Oilseed Rape ([6]; 8 g ai/ha)
75: Plant response rating, Ragweed [2, 19] | Plant response rating (scale of 0 to 100), Pigweed ([9]; 8 g ai/ha) | Plant response rating (scale of 0 to 100), Waterhemp ([11]; 16 g ai/ha)
10: Plant response rating (scale of 0 to 100), Lambsquarters ([10]; 8 g ai/ha) | Plant response rating (scale of 0 to 100), Corn ([18]; 8 g ai/ha)
30: Plant response rating (scale of 0 to 100), Oilseed Rape ([6]; 31 g ai/ha) | Plant response rating (scale of 0 to 100), Lambsquarters ([10]; 16 g ai/ha) | Plant response rating (scale of 0 to 100), Corn ([18]; 16 g ai/ha)
65: Plant response rating, Corn [18, 19]
15: Plant response rating (scale of 0 to 100), Johnsongrass ([3]; 16 g ai/ha) | Plant response rating, Morningglory [5, 19]
70: Plant response rating, Johnsongrass [3, 19]
40: Plant response rating (scale of 0 to 100), Blackgrass ([1]; 16 g ai/ha) | Plant response rating (scale of 0 to 100), Wheat ([7]; 31 g ai/ha)
85: Plant response rating, Oilseed Rape [6, 19] | Plant response rating (scale of 0 to 100), Foxtail, Giant ([8]; 8 g ai/ha) | Plant response rating (scale of 0 to 100), Pigweed ([9]; 16 g ai/ha) | Plant response rating (scale of 0 to 100), Pigweed ([9]; 31 g ai/ha) | Plant response rating, Pigweed [9, 19] | Plant response rating (scale of 0 to 100), Waterhemp ([11]; 31 g ai/ha) | Plant response rating (scale of 0 to 100), Galium ([16]; 16 g ai/ha) | Plant response rating (scale of 0 to 100), Galium ([16]; 31 g ai/ha)
25: Plant response rating (scale of 0 to 100), Morningglory ([5]; 31 g ai/ha)
50: Plant response rating (scale of 0 to 100), Johnsongrass ([3]; 8 g ai/ha) | Plant response rating (scale of 0 to 100), Johnsongrass ([3]; 31 g ai/ha) | Plant response rating, Lambsquarters [10, 19]
55: Plant response rating, Ryegrass, Italian [4, 19]
90: Plant response rating, Blackgrass [1, 19] | Plant response rating (scale of 0 to 100), Foxtail, Giant ([8]; 16 g ai/ha) | Plant response rating (scale of 0 to 100), Foxtail, Giant ([8]; 31 g ai/ha) | Plant response rating, Foxtail, Giant [8, 19] | Plant response rating, Waterhemp [11, 19] | Plant response rating (scale of 0 to 100), Barnyardgrass ([14]; 8 g ai/ha) | Plant response rating (scale of 0 to 100), Barnyardgrass ([14]; 16 g ai/ha) | Plant response rating (scale of 0 to 100), Barnyardgrass ([14]; 31 g ai/ha) | Plant response rating (scale of 0 to 100), Crabgrass, Large ([15]; 8 g ai/ha) | Plant response rating (scale of 0 to 100), Crabgrass, Large ([15]; 16 g ai/ha) | Plant response rating (scale of 0 to 100), Galium ([16]; 8 g ai/ha) | Plant response rating, Galium [16, 19]
20: Plant response rating (scale of 0 to 100), Ragweed ([2]; 16 g ai/ha) | Plant response rating (scale of 0 to 100), Ryegrass, Italian ([4]; 16 g ai/ha) | Plant response rating (scale of 0 to 100), Wheat ([7]; 8 g ai/ha)
45: Plant response rating (scale of 0 to 100), Ragweed ([2]; 31 g ai/ha) | Plant response rating (scale of 0 to 100), Ryegrass, Italian ([4]; 31 g ai/ha) | Plant response rating (scale of 0 to 100), Waterhemp ([11]; 8 g ai/ha)
35: Plant response rating, Wheat [7, 19]
